Usually inhibition in vivo stands for the relative decrease from the control value, in per cent. A higher inhibition in vivo goes with strong suppression.

Type in all cases: functional
What all share (settings): route oral

In assay [1] the test system is Mus musculus. Kind of assay: Inhibition of delayed type hypersensitivity granuloma in mice following 10 mg/kg p.o. administration.
Assay [2] deals with Mus musculus. Kind of assay: Inhibition of antigen-induced arthritis in mice following 10 mg/kg p.o. administration.
Assay [3] concerns Mus musculus. Kind of assay: Compound was tested for antiarthritic activity in murine model of antigen-induced arthritis. upon 10 mg/kg peroral administration.
Assay [4] concerns Mus musculus. Kind of assay: Compound was tested for antiarthritic activity in murine model of antigen-induced arthritis upon 10 mg/kg peroral administration.
In assay [5] the test system is Mus musculus. Kind of assay: Compound was tested for anti-inflammatory activity in delayed type hypersensitivity granuloma upon 100 mg/kg peroral administration.
Assay [6] has as its system Mus musculus. The assay is described as follows: Compound was tested for antiarthritic activity in murine model of antigen-induced arthritis upon 100 mg/kg peroral administration.

As to `CCOP(=O)(OCC)C(CCC(=O)c1ccco1)P(=O)(OCC)OCC`, the values for the inhibition in vivo at 10 mg/kg in assay [1] and in assay [2] were 23% and 11%, respectively.
As for `CCOP(=O)(OCC)C(CCC(=O)c1cccnc1)P(=O)(OCC)OCC`, the inhibition in vivo at 10 mg/kg in assay [1] was 51%; in assay [2], 61%.
Consider `CCOP(=O)(OCC)C(CCC(=O)c1ccccn1)P(=O)(OCC)OCC`, for which the inhibition in vivo at 10 mg/kg is 43% in assay [1] and 47% in assay [2].
Regarding `CCOP(=O)(OCC)C(CCC(=O)c1cccc(NS(C)(=O)=O)c1)P(=O)(OCC)OCC`, the inhibition in vivo at 10 mg/kg stood at 37% in assay [1] and 33% in assay [2].
The corresponding values for `CCOP(=O)(OCC)C(CCC(=O)c1ccc(NC(=O)c2ccccc2)cc1)P(=O)(OCC)OCC` are 63% and 4%.
The corresponding values for `CCOP(=O)(OCC)C(CCC(=O)c1cccc(Br)c1)P(=O)(OCC)OCC` are 59% and 22%.
Turning to `CCOP(=O)(OCC)C(CCC(O)c1ccccc1)P(=O)(OCC)OCC` (stereo not given), the inhibition in vivo at 10 mg/kg in assay [1] was 39%.
For the molecule `CCOP(=O)(OCC)C(CCC(=O)c1cccc(F)c1)P(=O)(OCC)OCC`, in assay [3], the ED30 came out at 0.1 mg/kg. Further, the inhibition in vivo at 10 mg/kg in assay [1] worked out at 44%; in assay [2], 40%.
The corresponding values for `CC1(C)COP(=O)(C(CCC(=O)c2cccnc2)P2(=O)OCC(C)(C)CO2)OC1` are 0.4 mg/kg, 38% and 28%.
As to `CCOP(=O)(OCC)C(CCC(=O)c1cccc(Cl)c1)P(=O)(OCC)OCC`, the inhibition in vivo at 10 mg/kg in assay [1] came out at 10%; in assay [2], 26%.
The corresponding values for `CCOP(=O)(OCC)C(CCCc1ccccc1)P(=O)(OCC)OCC` are 44% and 11%.
Regarding `CCOC(=O)Nc1ccc(C(=O)CCC(P(=O)(OCC)OCC)P(=O)(OCC)OCC)cc1`, the inhibition in vivo at 10 mg/kg in assay [1] was 43%; in assay [2], 18%.
Regarding `CC1(C)COP(=O)(C(CCC(=O)c2ccccc2)P2(=O)OCC(C)(C)CO2)OC1`, in assay [1], testing at 10 mg/kg gave an inhibition in vivo of 36%.
For the molecule `CC1(C)COP(=O)(C(CCC(=O)c2ccoc2)P2(=O)OCC(C)(C)CO2)OC1`, the inhibition in vivo at 10 mg/kg was 45% in assay [1] and 16% in assay [2].
Take `CCOP(=O)(OCC)C(CCC(=O)c1cccc(I)c1)P(=O)(OCC)OCC`: at 10 mg/kg the inhibition in vivo in assay [1] was 5%.
For `CCOP(=O)(OCC)C(CCC(=O)c1ccccc1)P(=O)(OCC)OCC`, the figures for the inhibition in vivo at 10 mg/kg in assay [1] and in assay [2] were 51% and 10%, respectively.
`CCOP(=O)(OCC)C(CC(=O)c1ccccc1)P(=O)(OCC)OCC`: the inhibition in vivo at 10 mg/kg is 7% in assay [1] and 11% in assay [2].
Turning to `CCOP(=O)(OCC)C(CCC(=O)c1ccc(NC(C)=O)cc1)P(=O)(OCC)OCC`, the inhibition in vivo at 10 mg/kg in assay [1] was determined as 75%; in assay [2], 10%.
In turn, `CC1(C)COP(=O)(C(CCC(=O)c2cccc(F)c2)P2(=O)OCC(C)(C)CO2)OC1` yielded an ED30 in assay [3] of 0.01 mg/kg. Also, the inhibition in vivo at 10 mg/kg in assay [1] was less than 57%; in assay [2], 48%.
Regarding `CCOP(=O)(OCC)C(CC(C(=O)c1ccccc1)c1ccccc1)P(=O)(OCC)OCC` (stereo not given), the inhibition in vivo at 10 mg/kg in assay [1] came out at 65%; in assay [4], 54%. The same molecule yielded an ED30 in assay [4] of 50 mg/kg.
In assay [5], `O=P(O)(O)C(Cl)(Cl)P(=O)(O)O` [CLODRONIC ACID] showed an ED30 of 30 mg/kg and an inhibition in vivo at 100 mg/kg of 48%. In assay [6], this molecule came in with an ED30 of 50 mg/kg and an inhibition in vivo at 100 mg/kg of 42%.

For the origin of these results see ChEMBL document CHEMBL1130809, “Anti-inflammatory/antiarthritic ketonic bisphosphonic acid esters” (1998).
